From patent US9216999B2, “Substituted pyrrolo[2,3-h][1,6]naphthyridines and compositions thereof as JAK inhibitors” (priority 2011, dated 2015)
Like-named read-outs stand apart in the source and are kept apart here. Blank lines part the entries; values can stand above or below the compound they belong to.

Tests used:
Format in all cases: biochemical
[1] = biological target: JAK3 (Homo sapiens (Human), UniProt P52333); assay: Enzyme assay (Assay Example^a 1), JAK3
[2] = biological target: Tyk2 (Homo sapiens (Human), UniProt P29597); assay: Enzyme assay (Assay Example^a 1), Tyk2; conditions: ATP 100 μM
Sequence of Tyk2 (P29597 whole entry): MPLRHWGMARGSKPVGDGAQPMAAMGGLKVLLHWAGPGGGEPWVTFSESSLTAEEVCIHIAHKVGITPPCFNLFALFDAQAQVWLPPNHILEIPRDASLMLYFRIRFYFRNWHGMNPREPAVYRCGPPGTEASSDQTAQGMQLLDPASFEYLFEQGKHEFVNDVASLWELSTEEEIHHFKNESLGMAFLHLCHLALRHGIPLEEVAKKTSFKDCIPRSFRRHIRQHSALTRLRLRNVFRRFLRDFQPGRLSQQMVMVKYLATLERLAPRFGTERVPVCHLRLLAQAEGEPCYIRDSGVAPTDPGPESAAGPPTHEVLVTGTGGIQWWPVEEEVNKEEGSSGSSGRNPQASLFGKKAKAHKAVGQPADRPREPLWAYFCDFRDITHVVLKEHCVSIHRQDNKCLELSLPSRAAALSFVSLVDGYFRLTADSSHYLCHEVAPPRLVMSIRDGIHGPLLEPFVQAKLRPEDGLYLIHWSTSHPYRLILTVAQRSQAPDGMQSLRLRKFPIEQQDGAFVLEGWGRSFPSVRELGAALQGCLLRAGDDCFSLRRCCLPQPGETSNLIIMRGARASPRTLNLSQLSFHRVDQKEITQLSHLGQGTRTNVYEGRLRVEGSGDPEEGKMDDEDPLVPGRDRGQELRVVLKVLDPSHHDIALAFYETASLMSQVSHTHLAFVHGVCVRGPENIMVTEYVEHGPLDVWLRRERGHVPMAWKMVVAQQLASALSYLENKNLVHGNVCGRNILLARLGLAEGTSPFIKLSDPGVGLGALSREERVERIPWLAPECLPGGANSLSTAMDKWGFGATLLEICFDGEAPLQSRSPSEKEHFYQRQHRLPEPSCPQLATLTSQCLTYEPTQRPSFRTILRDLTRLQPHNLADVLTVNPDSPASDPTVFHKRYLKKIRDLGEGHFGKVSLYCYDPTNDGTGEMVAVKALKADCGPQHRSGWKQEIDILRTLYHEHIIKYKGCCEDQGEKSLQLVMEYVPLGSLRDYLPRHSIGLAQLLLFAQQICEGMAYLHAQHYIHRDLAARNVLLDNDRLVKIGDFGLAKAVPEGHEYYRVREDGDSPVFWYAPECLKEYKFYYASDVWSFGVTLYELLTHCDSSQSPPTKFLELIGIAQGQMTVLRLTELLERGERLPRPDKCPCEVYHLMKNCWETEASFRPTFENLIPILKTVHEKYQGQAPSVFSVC

[3] = biological target: JAK1 (Homo sapiens (Human), UniProt P23458); assay: Enzyme assay (Assay Example^a 1), JAK1; conditions: ATP 100 μM

Sequence of JAK3 (P52333 whole entry): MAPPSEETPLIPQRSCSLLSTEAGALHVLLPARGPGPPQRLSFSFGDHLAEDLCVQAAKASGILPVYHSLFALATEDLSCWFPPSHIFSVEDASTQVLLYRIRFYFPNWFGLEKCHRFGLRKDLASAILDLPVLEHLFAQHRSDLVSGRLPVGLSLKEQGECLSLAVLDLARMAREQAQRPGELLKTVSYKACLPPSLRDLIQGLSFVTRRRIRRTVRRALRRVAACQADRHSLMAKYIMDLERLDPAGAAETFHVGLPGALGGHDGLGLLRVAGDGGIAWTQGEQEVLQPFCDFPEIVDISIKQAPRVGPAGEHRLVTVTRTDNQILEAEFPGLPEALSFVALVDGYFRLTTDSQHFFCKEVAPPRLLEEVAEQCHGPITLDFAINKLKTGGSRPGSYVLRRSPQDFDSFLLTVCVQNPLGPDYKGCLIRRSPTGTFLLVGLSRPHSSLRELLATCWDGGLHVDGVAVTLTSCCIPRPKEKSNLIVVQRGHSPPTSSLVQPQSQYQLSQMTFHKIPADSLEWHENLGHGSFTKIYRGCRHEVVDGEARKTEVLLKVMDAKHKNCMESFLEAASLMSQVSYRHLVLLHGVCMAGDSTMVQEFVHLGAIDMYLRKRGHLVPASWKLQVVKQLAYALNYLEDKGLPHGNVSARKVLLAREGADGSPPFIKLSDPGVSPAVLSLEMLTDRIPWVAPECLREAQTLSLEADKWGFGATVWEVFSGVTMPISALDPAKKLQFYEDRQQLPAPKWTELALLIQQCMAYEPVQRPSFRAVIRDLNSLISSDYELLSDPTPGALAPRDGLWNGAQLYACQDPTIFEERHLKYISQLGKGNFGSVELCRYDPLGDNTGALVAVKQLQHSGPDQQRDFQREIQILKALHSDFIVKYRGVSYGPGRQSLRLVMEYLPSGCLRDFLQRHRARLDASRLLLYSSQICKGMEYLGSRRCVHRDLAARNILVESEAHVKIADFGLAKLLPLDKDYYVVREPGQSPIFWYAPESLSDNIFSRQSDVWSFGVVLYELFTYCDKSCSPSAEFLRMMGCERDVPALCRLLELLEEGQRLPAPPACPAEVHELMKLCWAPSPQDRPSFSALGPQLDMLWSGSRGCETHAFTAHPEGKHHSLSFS

Structure (SMILES): Clc1ccc(CN[C@H]2CC[C@H](c3nnn4cnc5[nH]ccc5c34)CC2)cc1 [197b, trans-N-(4-chlorobenzyl)-4-(7H-pyrrolo[3,2-e][1,2,3]triazolo[1,5-c]pyrimidin-1-yl)cyclohexanamine]
IC50 ([2]; Table^a 154): 0.11 µM
IC50 ([1]; ATP 100 μM, Table^a 154): 0.52 µM
IC50 ([3]; Table^a 154): 0.0054 µM

Structure (SMILES): O=C(OCc1ccccc1)N1CCCC(c2ncn3cnc4[nH]ccc4c23)C1 (racemic) [compound 3]
IC50 ([1]; ATP 100 μM): 1.4 µM
IC50 [3]: 0.057 µM

Structure (SMILES): Fc1ccc(NC[C@H]2CC[C@H](c3nnn4cnc5[nH]ccc5c34)CC2)c(C(F)(F)F)c1 [compound 117]
IC50 [1]: > 1 µM
IC50 ([3]; Table^a 154): 0.039 µM

Structure (SMILES): N[C@H]1CC[C@H](c2nnn3cnc4[nH]ccc4c23)CC1 [compound 61]
IC50 ([2]; Table^a 154): 0.44 µM

Structure (SMILES): N#Cc1cc(CN2CCC(c3nnn4cnc5[nH]ccc5c34)CC2)ccc1F [compound 223, 5-{[4-(7H-pyrrolo[3,2-e][1,2,3]triazolo[1,5-c]pyrimidin-1-yl)piperidin-1-yl]methyl}-2-fluorobenzonitrile]
IC50 [2]: > 1 µM
IC50 ([1]; ATP 100 μM): 0.94 µM
IC50 [3]: 0.015 µM

Structure (SMILES): c1ccc2sc(CN3CCC(c4nnn5cnc6[nH]ccc6c45)CC3)nc2c1 [compound 232, 2-{[4-(7H-pyrrolo[3,2-e][1,2,3]triazolo[1,5-c]pyrimidin-1-yl)piperidin-1-yl]methyl}benzo[d]thiazole]
IC50 ([1]; ATP 100 μM): > 1 µM

Structure (SMILES): CC(c1ccccc1)N1CCC(c2nnn3cnc4[nH]ccc4c23)CC1 (racemic) [compound 245, 1-[1-(1-phenylethyl)piperidin-4-yl]-7H-pyrrolo[3,2-e][1,2,3]triazolo[1,5-c]pyrimidine]
IC50 [2]: > 1 µM
IC50 ([1]; ATP 100 μM): > 1 µM

Structure (SMILES): FC(F)(F)c1cc(CN2CCC(c3nnn4cnc5[nH]ccc5c34)CC2)cc(C(F)(F)F)c1 [compound 47]
IC50 ([2]; Table^a 154): > 1 µM
IC50 ([3]; Table^a 154): 0.78 µM

Structure (SMILES): N#C/C(=C\N1CCC(c2nnn3cnc4[nH]ccc4c23)CC1)c1ccc(Cl)cc1 [compound 235, (Z)-3-[4-(7H-pyrrolo[3,2-e][1,2,3]triazolo[1,5-c]pyrimidin-1-yl)piperidin-1-yl]-2-(4-chlorophenyl)acrylonitrile]
IC50 [2]: > 1 µM
IC50 ([1]; ATP 100 μM): > 1 µM
IC50 [3]: 0.056 µM

Structure (SMILES): OC(CN[C@H]1CC[C@H](c2nnn3cnc4[nH]ccc4c23)CC1)c1ccccc1 (mixture of isomers) [202b, 2-{[trans-4-(7H-pyrrolo[3,2-e][1,2,3]triazolo[1,5-c]pyrimidin-1-yl)cyclohexyl]amino}-1-phenylethanol]
IC50 ([2]; Table^a 154): 0.26 µM

Structure (SMILES): Fc1ccc(CNC[C@H]2CC[C@H](c3nnn4cnc5[nH]ccc5c34)CC2)cc1C(F)(F)F [compound 112]
IC50 ([3]; Table^a 154): 0.0049 µM

Structure (SMILES): N#Cc1ccc(CNC(=O)[C@H]2CC[C@H](c3nnn4cnc5[nH]ccc5c34)CC2)cc1 [compound 350, trans-N-(4-cyanobenzyl)-4-(7H-pyrrolo[3,2-e][1,2,3]triazolo[1,5-c]pyrimidin-1-yl)cyclohexanecarboxamide]
IC50 [2]: 0.54 µM
IC50 ([1]; ATP 100 μM): > 1 µM
IC50 [3]: 0.008 µM

Structure (SMILES): O=C(Nc1nncs1)N1CCCC(c2nnn3cnc4[nH]ccc4c23)C1 (racemic) [compound 20]
IC50 ([2]; Table^a 154): 0.42 µM
IC50 ([3]; Table^a 154): 0.019 µM

Structure (SMILES): O=C(OCc1ccccc1)N1CCC(c2nnn3cnc4[nH]ccc4c23)C1 (racemic) [compound 211, Benzyl 3-(7H-pyrrolo[3,2-e][1,2,3]triazolo[1,5-c]pyrimidin-1-yl)pyrrolidine-1-carboxylate]
IC50 ([3]; Table^a 154): 0.12 µM

Structure (SMILES): N#Cc1ccc(N[C@H]2CC[C@H](c3nnn4cnc5[nH]ccc5c34)CC2)cc1 [134b]
IC50 [1]: 0.66 µM

Structure (SMILES): FC(F)(F)c1ccc(CN2CCC(c3[nH]c(=S)n4cnc5[nH]ccc5c34)CC2)cc1 [compound 86]
IC50 ([3]; Table^a 154): 0.02 µM

Structure (SMILES): c1cncc(CN2CCCC(c3nnn4cnc5[nH]ccc5c34)C2)c1 (racemic) [compound 18]
IC50 ([2]; Table^a 154): > 1 µM

Structure (SMILES): c1cc2c(ncn3nnc(C4CC5CCC4C5)c23)[nH]1 (centres unmarked) [compound 65]
IC50 ([2]; Table^a 154): 0.025 µM
IC50 ([1]; ATP 100 μM, Table^a 154): 0.15 µM

Structure (SMILES): OC(CNC[C@H]1CC[C@H](c2nnn3cnc4[nH]ccc4c23)CC1)c1ccccc1 (mixture of isomers) [compound 186, 2-({[trans-4-(7H-pyrrolo[3,2-e][1,2,3]triazolo[1,5-c]pyrimidin-1-yl)cyclohexyl]methyl}amino)-1-phenylethanol]
IC50 ([2]; Table^a 154): 0.044 µM

Structure (SMILES): CC1CCN(C(=O)CC#N)CC1c1nnn2cnc3[nH]ccc3c12 (centres unmarked) [compound 12]
IC50 ([2]; Table^a 154): 0.91 µM
IC50 ([3]; Table^a 154): 0.021 µM

Structure (SMILES): c1ccc(CN2CCCC(c3nnn4cnc5[nH]ccc5c34)C2)cc1 (racemic) [compound 16]
IC50 ([1]; ATP 100 μM, Table^a 154): 5.3 µM
IC50 ([3]; Table^a 154): 0.28 µM

Structure (SMILES): CC(C)(C)OC(=O)N[C@H]1CC[C@H](c2nnn3cnc4[nH]ccc4c23)CC1 [compound 59]
IC50 ([2]; Table^a 154): > 1 µM
IC50 ([1]; ATP 100 μM, Table^a 154): > 1 µM

Structure (SMILES): N#Cc1ccc(N[C@H]2CC[C@@H](c3nnn4cnc5[nH]ccc5c34)CC2)cc1 [134a]
IC50 [1]: 1 µM

Structure (SMILES): CO[C@H]1CC[C@H](c2nnn3cnc4[nH]ccc4c23)CC1 [compound 63]
IC50 ([3]; Table^a 154): 0.011 µM

Structure (SMILES): COC[C@H]1CC[C@H](c2nnn3cnc4[nH]ccc4c23)CC1 [compound 62]
IC50 ([2]; Table^a 154): 0.14 µM
IC50 ([1]; ATP 100 μM, Table^a 154): 0.47 µM

Structure (SMILES): O[C@H]1CC[C@H](c2nnn3cnc4[nH]ccc4c23)CC1 [compound 81]
IC50 [1]: 0.64 µM

Results, then the compound that gave them:

IC50 ([1]; ATP 100 μM, Table^a 154): 0.48 µM
Structure (SMILES): O=C(Nc1nncs1)N1CCC(c2nnn3cnc4[nH]ccc4c23)CC1 [compound 30]

IC50 [2]: 0.51 µM
IC50 ([1]; ATP 100 μM): > 1 µM
IC50 [3]: 0.0084 µM
Structure (SMILES): OC1(CNC[C@H]2CC[C@H](c3nnn4cnc5[nH]ccc5c34)CC2)CCCCC1 [compound 313, 1-[({[trans-4-(7H-pyrrolo[3,2-e][1,2,3]triazolo[1,5-c]pyrimidin-1-yl)cyclohexyl]methyl)amino)methyl]cyclohexanol]

IC50 [2]: 0.032 µM
Structure (SMILES): O[C@@H](CNC[C@H]1CC[C@H](c2nnn3cnc4[nH]ccc4c23)CC1)c1ccccc1 [compound 276, (R)-2-({[trans-4-(7H-pyrrolo[3,2-e][1,2,3]triazolo[1,5-c]pyrimidin-1-yl)cyclohexyl]methyl}amino)-1-phenylethanol]

IC50 ([1]; ATP 100 μM, Table^a 154): 0.015 µM
Structure (SMILES): Brc1ncc(CN2CCC(c3nnn4cnc5[nH]ccc5c34)CC2)s1 [compound 153]

IC50 ([1]; ATP 100 μM, Table^a 154): 0.048 µM
Structure (SMILES): CC(=O)OC[C@H]1CC[C@H](c2nnn3cnc4[nH]ccc4c23)CC1 [compound 72]

IC50 ([1]; ATP 100 μM, Table^a 154): 0.31 µM
Structure (SMILES): N#Cc1ccc(CNC[C@H]2CC[C@H](c3nnn4cnc5[nH]ccc5c34)CC2)cc1 [compound 93]

IC50 ([1]; ATP 100 μM, Table^a 154): 0.26 µM
Structure (SMILES): N#Cc1cccc(CN2CCC(c3nnn4cnc5[nH]ccc5c34)CC2)c1 [compound 35]

IC50 ([1]; ATP 100 μM, Table^a 154): 0.032 µM
Structure (SMILES): ClC[C@H]1CC[C@H](c2nnn3cnc4[nH]ccc4c23)CC1 [compound 75]

IC50 [2]: 0.37 µM
IC50 [3]: 0.046 µM
Structure (SMILES): O=C1NOC[C@H]1NC[C@H]1CC[C@H](c2nnn3cnc4[nH]ccc4c23)CC1 [compound 288, (R)-4-({[trans-4-(7H-pyrrolo[3,2-e][1,2,3]triazolo[1,5-c]pyrimidin-1-yl)cyclohexyl]methyl}amino)isoxazolidin-3-one]

IC50 [2]: 0.05 µM
Structure (SMILES): O[C@H](CNC[C@H]1CC[C@H](c2nnn3cnc4[nH]ccc4c23)CC1)c1ccccc1 [compound 277, (S)-2-({[trans-4-(7H-pyrrolo[3,2-e][1,2,3]triazolo[1,5-c]pyrimidin-1-yl)cyclohexyl]methyl}amino)-1-phenylethanol]

IC50 [1]: 0.041 µM
Structure (SMILES): FC(F)(F)c1ccc(CN2CCC(c3nnn4cnc5[nH]ccc5c34)CC2)cn1 [compound 52]

IC50 [1]: 0.44 µM
Structure (SMILES): FC(F)(F)CN1CCC(c2nnn3cnc4[nH]ccc4c23)CC1 [compound 25]

IC50 ([1]; ATP 100 μM, Table^a 154): 0.31 µM
Structure (SMILES): c1coc(CN2CCC(c3nnn4cnc5[nH]ccc5c34)CC2)c1 [compound 146]

IC50 [1]: 0.28 µM
Structure (SMILES): O[C@H]1CC[C@@H](c2nnn3cnc4[nH]ccc4c23)CC1 [compound 83]

IC50 [1]: 0.071 µM
Structure (SMILES): Clc1ccc(CN2CCC(c3nnn4cnc5[nH]ccc5c34)CC2)cc1 [compound 54]

IC50 ([2]; Table^a 154): 0.35 µM
Structure (SMILES): O[C@@H](CN[C@H]1CC[C@H](c2nnn3cnc4[nH]ccc4c23)CC1)c1ccccc1 [204b, (R)-2-{[trans-4-(7H-pyrrolo[3,2-e][1,2,3]triazolo[1,5-c]pyrimidin-1-yl)cyclohexyl]amino)-1-phenylethanol]

IC50 ([1]; ATP 100 μM, Table^a 154): 0.63 µM
Structure (SMILES): c1cc(CN2CCC(c3nnn4cnc5[nH]ccc5c34)CC2)[nH]n1 [compound 151]

IC50 [1]: 0.46 µM
Structure (SMILES): N#Cc1ccc(NC2CCC(c3nnn4cnc5[nH]ccc5c34)CC2)cc1 (centres unmarked) [compound 121]

IC50 ([1]; ATP 100 μM, Table^a 154): > 1 µM
Structure (SMILES): Cc1cc(NC(=O)N2CCC(c3nnn4cnc5[nH]ccc5c34)CC2)sn1 [compound 31]

IC50 ([3]; Table^a 154): 0.55 µM
Structure (SMILES): FC(F)(F)c1ccc(CN2CCCC(c3nnn4cnc5[nH]ccc5c34)C2)cc1 (racemic) [compound 23]

IC50 ([1]; ATP 100 μM, Table^a 154): 0.36 µM
Structure (SMILES): Fc1ccccc1CN1CCC(c2nnn3cnc4[nH]ccc4c23)CC1 [compound 142]

IC50 ([1]; ATP 100 μM, Table^a 154): > 1 µM
Structure (SMILES): c1cc2c(ncn3nnc(C4CCC(N5CCOCC5)CC4)c23)[nH]1 (centres unmarked) [compound 124]

IC50 ([1]; ATP 100 μM, Table^a 154): > 1 µM
Structure (SMILES): c1cc2c(ncn3nnc(C4CCC(NCCN5CCOCC5)CC4)c23)[nH]1 (centres unmarked) [compound 126]

IC50 ([2]; Table^a 154): > 1 µM
Structure (SMILES): CC(C)(C)OC(=O)N1CCCC(c2nnn3cnc4[nH]ccc4c23)C1 (racemic) [compound 13]

IC50 ([1]; ATP 100 μM, Table^a 154): 0.53 µM
Structure (SMILES): FC(F)(F)c1cccc(CN2CCC(c3nnn4cnc5[nH]ccc5c34)CC2)c1 [compound 39]

IC50 ([1]; ATP 100 μM, Table^a 154): 0.64 µM
Structure (SMILES): c1cc2c(ncn3nnc([C@H]4CC[C@H](CN5CCOCC5)CC4)c23)[nH]1 [compound 91]

IC50 ([1]; ATP 100 μM, Table^a 154): 0.032 µM
Structure (SMILES): c1cc2c(ncn3nnc(C4CCN(Cc5csnn5)CC4)c23)[nH]1 [compound 152]

IC50 ([1]; ATP 100 μM, Table^a 154): > 1 µM
Structure (SMILES): N#Cc1ccc(NC[C@H]2CC[C@H](c3nnn4cnc5[nH]ccc5c34)CC2)cc1 [compound 92]

IC50 ([1]; ATP 100 μM, Table^a 154): > 1 µM
Structure (SMILES): O=C(OCc1ccccc1)N1CCC(c2[nH]c(=S)n3cnc4[nH]ccc4c23)CC1 [compound 85]

IC50 ([2]; Table^a 154): 0.33 µM
Structure (SMILES): O[C@H](CN[C@H]1CC[C@H](c2nnn3cnc4[nH]ccc4c23)CC1)c1ccccc1 [203b, (S)-2-{[trans-4-(7H-pyrrolo[3,2-e][1,2,3]triazolo[1,5-c]pyrimidin-1-yl)cyclohexyl]amino}-1-phenylethanol]

IC50 ([1]; ATP 100 μM, Table^a 154): 0.62 µM
Structure (SMILES): Fc1ccc(CN2CCC(c3nnn4cnc5[nH]ccc5c34)CC2)cc1C(F)(F)F [compound 154]

IC50 [1]: > 1 µM
Structure (SMILES): Cc1cc(C#N)ccc1NC[C@H]1CC[C@H](c2nnn3cnc4[nH]ccc4c23)CC1 [compound 103]

IC50 [1]: 0.055 µM
Structure (SMILES): CC(=O)SC[C@H]1CC[C@H](c2nnn3cnc4[nH]ccc4c23)CC1 [compound 71]
